In US12503503B2, “Bispecific anti-VEGF/ANG2 antibody formulation” (Hoffmann-La Roche Inc., priority 2018, dated 2025):
Read-outs that look alike come from different tables or passages of the source.

B1: Ang-1: angiopoietin-1, ligand of TIE2 (protein, UniProt Q15389 16-498, looked up)
Angiopoietin-1: HIGCSNQRRSPENSGRRYNRIQHGQCAYTFILPEHDGNCRESTTDQYNTNALQRDAPHVEPDFSSQKLQHLEHVMENYTQWLQKLENYIVENMKSEMAQIQQNAVQNHTATMLEIGTSLLSQTAEQTRKLTDVETQVLNQTSRLEIQLLENSLSTYKLEKQLLQQTNEILKIHEKNSLLEHKILEMEGKHKEELDTLKEEKENLQGLVTRQTYIIQELEKQLNRATTNNSVLQKQQLELMDTVHNLVNLCTKEGVLLKGGKREEEKPFRDCADVYQAGFNKSGIYTIYINNMPEPKKVFCNMDVNGGGWTVIQHREDGSLDFQRGWKEYKMGFGNPSGEYWLGNEFIFAITSQRQYMLRIELMDWEGNRAYSQYDRFHIGNEKQNYRLYLKGHTGTAGKQSSLILHGADFSTKDADNDNCMCKCALMLTGGWWFDACGPSNLNGMFYTAGQNHGKLNGIKWHYFKGPSYSLRSTTMMIRPLDF

Columns and labels:
cynomolgus monkeys = conditions: 14 days apart
Experimental: A toxicity study in cynomolgus monkeys was conducted in which methionine (10 mM) was a component of the vehicle and of the formulated test article CrossMAb VEGFang2-0016 (faricimab). In this study, a total of 12 animals (6 males/6 females) were treated intravitreal with 50 μL/eye two times, 14 days apart. The left eyes were treated with the vehicle (containing 10 mM methionine) and the right eyes were treated with the formulated test article CrossMAb VEGFang2-0016 (faricimab), also containing 10 mM methionine.
(§1) Three studies (in cynomolgus monkeys and in New Zealand White rabbits) were conducted in which methionine (5-25 mM) was a component of the vehicle, administered intravitreally (also 50 μL/eye) up to six times, 14 days apart.

[1] = system: New Zealand White rabbits; conditions: methionine (5-25 mM) in vehicle, intravitreal 50 μL/eye up to six times, 14 days apart
Experimental: as §1

TIE2 = TIE2 (Homo sapiens, UniProt Q02763); conditions: Maisonpierre et al., Science 277 (1997); read-out: affinity to TIE2 (Kd); cited from earlier work
Sequence of TIE2 (Q02763 23-1124, species assumed): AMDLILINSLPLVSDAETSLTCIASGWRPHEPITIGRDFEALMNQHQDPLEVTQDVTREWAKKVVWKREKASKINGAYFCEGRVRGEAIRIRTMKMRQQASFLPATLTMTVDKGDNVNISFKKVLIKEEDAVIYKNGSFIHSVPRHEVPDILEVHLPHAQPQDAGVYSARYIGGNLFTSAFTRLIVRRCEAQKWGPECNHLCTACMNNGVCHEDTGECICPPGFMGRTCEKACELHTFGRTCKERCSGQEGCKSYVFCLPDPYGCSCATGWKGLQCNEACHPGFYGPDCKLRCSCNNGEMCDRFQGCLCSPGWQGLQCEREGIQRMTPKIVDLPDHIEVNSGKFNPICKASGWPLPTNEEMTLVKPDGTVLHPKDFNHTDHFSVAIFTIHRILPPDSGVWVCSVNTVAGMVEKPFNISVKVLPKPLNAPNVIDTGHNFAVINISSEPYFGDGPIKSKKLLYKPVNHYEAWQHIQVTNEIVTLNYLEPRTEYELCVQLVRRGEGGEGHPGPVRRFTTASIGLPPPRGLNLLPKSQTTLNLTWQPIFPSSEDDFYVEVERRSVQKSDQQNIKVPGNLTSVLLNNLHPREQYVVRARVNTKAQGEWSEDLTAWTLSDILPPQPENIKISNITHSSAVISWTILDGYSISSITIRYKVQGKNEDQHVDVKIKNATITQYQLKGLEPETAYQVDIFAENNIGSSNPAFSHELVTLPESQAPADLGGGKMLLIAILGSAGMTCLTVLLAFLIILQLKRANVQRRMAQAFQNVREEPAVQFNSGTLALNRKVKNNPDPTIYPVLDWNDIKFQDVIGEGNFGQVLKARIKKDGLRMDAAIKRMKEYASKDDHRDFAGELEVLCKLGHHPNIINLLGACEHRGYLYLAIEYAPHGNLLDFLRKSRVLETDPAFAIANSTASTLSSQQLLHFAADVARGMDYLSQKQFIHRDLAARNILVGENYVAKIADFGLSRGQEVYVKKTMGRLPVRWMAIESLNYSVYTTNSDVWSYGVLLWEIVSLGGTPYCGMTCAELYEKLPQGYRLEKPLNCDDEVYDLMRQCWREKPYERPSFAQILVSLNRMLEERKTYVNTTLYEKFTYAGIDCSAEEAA

Molecule	ocular effects of methionine (cynomolgus monkeys; 10 mM methionine in vehicle and formulated faricimab, intravitreal 50 μL/eye two times)	ocular effects of methionine (cynomolgus monkeys; methionine (5-25 mM) in vehicle, intravitreal 50 μL/eye up to six times)	ocular effects of methionine [1]	Kd (TIE2) [nM]
CSCC[C@H](N)C(=O)O [methionine]	no ocular effects	no ocular effects	no ocular effects	–
B1	–	–	–	3
